Consider four molecules from EP4591884A1, “LIPID COMPOUND FOR NUCLEIC ACID DELIVERY, AND RELATED USE AND MEDICAMENT COMPRISING SAME” (Beijing Baishihekang Pharmaceutical Technology (Bsjpharma) …, priority 2022, dated 2024).

Assay in all cases: in vitro small nucleic acid delivery by lipid-nucleic acid mixture, cell uptake by flow cytometry
Holding throughout (assay type): cell-based, human
Common to all, as to conditions: lipid 1.25 ug/mL, fluorescently labeled PGY-ssRNA-26, final 100 nM, 9 h incubation, flow cytometry fluorescence
(In general: In flow cytometry, cells or beads pass a laser one at a time.)

One experiment concerns H460 cells. How it is done:
(§1) Culture the human pancreatic acinar epithelial cancer cell line HPAC, human large cell lung cancer cell line H460, and human embryonic kidney cell line HEK293T (purchased from the Cell Resource Center, Institute of Basic Medicine, Chinese Academy of Medical Sciences) used in the experiments in a 37°C, 5%CO2 incubator. Culture the HPAC cells in DMEM/F12 medium, the H460 cells in RPMI-1640 medium, and the 293T cells in DMEM medium containing 10% fetal bovine serum and 1% antibiotics (penicillin 100 U/mL & streptomycin […]). Culture the cells to the logarithmic growth phase with a cell density of 6 × 10^5/1 mL medium/well; divide the cells into 12-well plates (1 mL medium/well), and incubate at 37°C overnight (12 h), and then conduct subsequent experiments.
(§2) Add 5 µL of nucleic acid and 95 µL of DEPC-treated water to a 2 mL glass tube, mix homogeneously, add a certain amount of lipid monomer, mix thoroughly, heat in a 90°C water bath for 15 min, and then cool naturally to obtain a mixture of nucleic acid and lipid.
(§3) 3. Detection of cell uptake of nucleic acids delivered by lipids inside cells by means of flow cytometry (CFlow) • 1) Main experimental instruments and equipment: 10 cm cell culture dishes, 12-well cell culture plates, pipettes, transfer tubes, optical microscope, flow cytometer CytoFLEX instrument (purchased from Beckman, USA) • 2) Main experimental reagents: Model establishment and transfection: artificially synthesized lipid monomers and nucleic acids as shown in the table • 3) Culture the human pancreatic acinar epithelial cancer cell line HPAC cells, human large cell lung cancer cell line H460 cells, and human embryonic kidney cell line HEK293T cells used in the experiment to the logarithmic growth phase, and then divide them into 12-well plates at a cell density of 6×10^5/mL culture medium/well; incubate the 12-well plates at 37°C overnight (12 h), and then conduct subsequent experiments. • 4) The experimental groups are as follows: • a) Blank group: refers to untreated cells, and this group serves as a blank control group. • b) Free uptake group: directly add 5 µL of fluorescently labeled nucleic acid solution (stock concentration 20 µM), and this group serves as the negative control group. • c) Lipid-nucleic acid mixture treatment group: add the mixture of lipids and fluorescently labeled nucleic acids prepared in step 2 to the cells, and mix homogeneously. The final concentration of nucleic acids is 100 nM. • 5) After incubating with cells for 9 h, wash the cells three times with PBS, resuspend the cells with PBS (self-prepared), and use a flow cytometer CytoFLEX instrument (purchased from Beckman, USA) to detect the fluorescence intensity of the cells in the sample wells.

The subject of another experiment is HPAC cells. How it is done: as §1, §2, §3
The subject of another experiment is 293T cells. The procedure:
as §1, §2, §3

In the case of `CCCCCCCCCCCCCCCCCCCCCCCCCCCCCCCC[C@@H](O)[C@@H](N)CO` [Sphingosine (d35:0), (2S,3R)-2-aminopentatriacontane-1,3-diol], the “Lipid delivery group (1.25 ug/mL)” value in the experiment with H460 cells came out at 69.95%; in the experiment on HPAC cells, 51.46%; with 293T cells it was 43.03%.
For `CCCCCCCCCCCCCCCCCCCCCCCCCCCCCC/C=C/[C@@H](O)[C@@H](N)CO` [Sphingosine (d35:1), (2S,3R,E)-2-aminopentatriacont-4-ene-1,3-diol], the “Lipid delivery group (1.25 ug/mL)” value with H460 cells came to 64.66%; with HPAC cells, 53.75%; in the experiment on 293T cells, 50.79%.
On the same counts, the results for `CCCCCCCCCCCCCCCCCCCCCCCCCCCCCCCCC[C@@H](O)[C@@H](N)CO` [Sphingosine (d36:0), (2S,3R)-2-aminohexatriacontane-1,3-diol] are 62.71%, 58.22% and 40.66%.
On the same counts, the results for `CCCCCCCCCCCCCCCCCCCCCCCCCCCCCCC/C=C/[C@@H](O)[C@@H](N)CO` [Sphingosine (d36:1), (2S,3R,E)-2-aminohexatriacont-4-ene-1,3-diol] are 48.37%, 48.77% and 25.23%.
